The source of these data is PMC8838787, “The Antiproliferative and Apoptotic Effects of a Novel Quinazoline Carrying Substituted-Sulfonamides: In Vitro and Molecular Docking Study” (Molecules, 2022).

Assay [1] has as its system A549 (lung) cancer cells. In words: MTT cell viability assay, A549. To be noted: average ± SD (n = 3). Type of assay: cell-based. How it is done: (§1) Compounds 4a–n were subjected to the cytotoxicity screening of the cell lines MCF-7 (breast), LoVo (colon), HepG2 (liver) and A549 (lung) carcinoma cells as well as HUVEC normal cell lines. The MTT assay was employed to assess cytotoxicity after 48 h of treatment with different concentrations of each compound and doxorubicin was used as a reference drug. The results were presented in Table 1 as growth inhibitory concentration (IC50 values).
(§2) Cell viability was determined using 3-(4,5-dimethylthiazol-2-yl)-2,5-diphenyl tetrazolium bromide (MTT) assay as stated previously. In brief, A549 (lung), HepG2 (liver), LoVo (colon), MCF-7 (breast) cancer cells as well as normal cells (HUVEC) were seeded in 96-well plates (10^5 per well) and compounds were added in a different final concentration. All cells were treated for 48 h, and then 10μL of MTT reagent (5 mg/mL) was added to each well and further incubated for 4 h. Thereafter, 0.1 mL of acidified isopropanol was added to solubilize formazan product and the developed color was measured at 570 nm in Microplate ELISA Reader (BioTek, Elx-800, Winooski, VT, USA). The IC50 values (concentration required for 50% inhibition of cell viability) were calculated using dose response curve. Cell viability was calculated as = (Ab Treated/Ab Control) × 100.
(§3) The A549, HepG2, LoVo and MCF-7 cancer cell lines were obtained from the German Collection of Microorganisms and Cell Cultures (DSMZ) (Braunschweig, Germany). For Human umbilical vein endothelial cells (HUVEC cells), it was purchased from American Type Culture Collection (16549; Cat no. PCS-100-010; ATTCC, Manassas, VA, USA).
(Tetrazolium assays rely on reduction of a dye to a coloured formazan, in cell work by metabolically active cells.)

In assay [2] the test system is HepG2 (liver) cancer cells. In words: MTT cell viability assay, HepG2. Type of assay: cell-based. To be noted: Homo sapiens, 48 h, average ± SD (n = 3). How it is done:
as §1, §2, §3

Assay [3] concerns LoVo (colon) cancer cells. The assay is described as follows: MTT cell viability assay, LoVo. Format: cell-based. To be noted: Homo sapiens, 48 h, average ± SD (n = 3). On the procedure:
as §1, §2, §3

Assay [4] has as its system MCF-7 cells. In words: Annexin V-FITC/PI apoptosis detection. Type of assay: cell-based, human. To be noted: 24 h, mean ± SD; for late apoptotic cells: control 1.75 ± 0.07%; for early apoptotic cells: untreated 1.05 ± 0.07%. The source says:
In addition to cell cycle arrest, apoptosis is another important anticancer process that inhibits cancer cell proliferation. Therefore, we further used a double labeling staining with Annexin V-FITC and PI to investigate apoptotic cell death. Phosphatidylserine exposure on the cell surface is a hallmark of early and late apoptotic cells, which can be easily identified with Annexin V-FITC [27].
Apoptotic cells were detected using Annexin V-FITC/PI staining protocol (BioLegend, San Diego, CA, USA) according to the manufacturer’s recommendations. Briefly, MCF-7 cells were incubated for 24 h with the different doses of promising compounds 4d and 4f. The cells were then harvested, washed twice with cold PBS and re-suspended with 1× Annexin V binding buffer (100 µL). Thereafter, cells were transferred into flow cytometry tube and stained with 5 μL of Annexin V- FITC and 5 μL PI for 15 min at room temperature in the dark. The cells were processed for apoptosis using a FACS Scan Flow Cytometer (Cytomics FC 500; Beckman Coulter, Brea, CA, USA) and analyzed using CXP software V. 3.0.

Assay [5] deals with caspase 7. In words: Western blot, caspase 7 protein. Type of assay: cell-based, human. To be noted: 24 h, in comparison to the control. The source says:
(§4) We next used reverse transcription polymerase chain reaction (RT-PCR) and Western blot analysis to look at Bax (proapoptotic), Bcl-2 (antiapoptotic) and caspase 7 (executioner caspase) expression at gene and protein level as an additional marker of apoptosis occurrence. In fact, apoptotic cell death is mostly directed by the levels of Bcl-2 family, whether they are pro-apoptotic or antiapoptotic and targeting these molecules as a therapeutic strategy is continuously under development. As predicted, we observed an upregulation in the expression of Bax in MCF-7 treated cells to (1.7-, 2- and 2.4-fold) with compound 4d and to (1.2-, 1.4- and 1.6-fold) with compound 4f at (1.25, 2.5 and 5 µM) respectively (Figure 6). […] This shifting in Bax to Bcl-2 ratio usually started caspases activation which plays a critical role in apoptosis execution. Among all caspases, caspase 7 is considered as one of the most crucial executioner caspases that mediate cell death, and its expression strongly correlates with apoptosis stimulation.
MCF-7 cells were plated in six well plates at the density of 0.5 × 10^6 and kept for adherence for overnight. On the next day, complete media was replaced with the fresh one and treated the cells with compounds 4d and 4f for 24 h at various concentrations. After 24 h of treatment, cells were harvested and washed twice with 1× PBS before adding the lysis buffer (20 mM Tris pH 7.5, 150 mM Nacl, 1 mM Na2EDTA, 1 mM EGTA, 1% Triton X100, 1 μg/mL Leupeptin and 100 µM phenylmethylsulfonyl fluoride—PMSF) and kept it for 1 h on ice, with intermittent vortex mixing every 10 min. The samples were centrifuged at 13,000 rpm at 4 °C for 15 min and then the supernatants were transferred into new tubes. Total protein was measured by using Bio-Rad Bradford kit and then 35 µg of the total protein was run on a 12% SDS-PAGE and transferred to a nitrocellulose membrane. The membrane was blocked with 5% BSA in TBST (150 mM Nacl, 20 mM Tris base and 0.1% Tween 20) for 2 h at room temperature and then washed three times with TBST buffer. Then the membrane was incubated with the desired antibodies (p53, Bcl-2, Bax, caspase7 and β-actin) (1:200, Santa Cruz Biotecnology, Inc., Dallas, TX, USA) and kept on a rocker at 4 °C overnight. On the next day, the membrane was washed three times with TBST buffer and then incubated with horseradish peroxidase-conjugated secondary antibody (1:3000) for 1 h at room temperature. After incubation, membranes were washed three times with TBST buffer and then were ready for immunodetection. For immunodetection, membranes were incubated with ECL Western blotting detecting reagents (Amersaham Pharmacia Biotech Inc., Zurich, Switzerland) and then bands were obtained by exposing to X-ray films (Amersham).
A general note: Immunoblotting shows a protein as a band on a membrane.

In assay [6] the test system is Bax. In words: Western blot, Bax protein. Format: cell-based, human. The following applies: MCF-7, 1.25, 2.5 and 5 μM, 24 h, vs control cells.
Source text: as §4, with “Among all caspases, caspase 7 is considered as one of the most crucial executioner caspases that mediate cell death, and its expression strongly correlates with apoptosis stimulation.” left out
MCF-7 cells were plated in six well plates at the density of 0.5 × 10^6 and kept for adherence for overnight. […] Total protein was measured by using Bio-Rad Bradford kit and then 35 µg of the total protein was run on a 12% SDS-PAGE and transferred to a nitrocellulose membrane. […] After incubation, membranes were washed three times with TBST buffer and then were ready for immunodetection. […]

The structures appear in SMILES notation.

`CCc1cccc(NC(=O)CNS(=O)(=O)c2ccc(-n3c(SCC(=O)Nc4cccc(CC)c4)nc4c(OC)cccc4c3=O)cc2)c1` [Compound 4f, N-(3-ethylphenyl)-2-((3-(4-(N-(2-((3-ethylphenyl)amino)-2-oxoethyl)sulfamoyl)-phe-nyl)-8-methoxy-4-oxo-3,4-dihydroquinazolin-2yl)thio)acetamide]: the IC50 in assay [1] (Homo sapiens, A549, 48 h) was 10.1 ± 0.24 µM; in assay [2] it was 11.7 ± 2 µM; in assay [3] it was 9.76 ± 1.68 µM. Also, the late apoptotic cells came to 15.4 ± 0.28% in assay [4] (1.25 µM), 31.05 ± 1.06% in assay [4] (2.5 µM) and 52.4 ± 0.28% in assay [4] (10 µM). For the same molecule, the “caspase 7 protein expression (Western blot)” value stood at 1.14 fold in assay [5] (MCF-7, 1.25 μM); 1.2 fold in assay [5] (MCF-7, 2.5 μM); 1.5 fold in assay [5] (MCF-7, 5 μM). The “expression of Bax protein (Western blot, in words)” value in assay [6] was “markedly increased”.

As to `COc1cccc2c(=O)n(-c3ccc(S(=O)(=O)NCC(=O)Nc4ccc(C)cc4)cc3)c(SCC(=O)Nc3ccc(C)cc3)nc12` [Compound 4d], the concentration for half-maximal inhibition (IC50) in assay [1] (48 h) is 6.6 ± 0.22 µM; in assay [1] (Homo sapiens, A549, 48 h), 5.6 µM; in assay [2], 9 ± 0.3 µM; in assay [3], 6.87 ± 0.62 µM. For the same molecule, the early apoptotic cells in assay [4] (1.25 µM) stood at 44.45 ± 1.06%; in assay [4] (2.5 µM), 67.55 ± 1.34%; in assay [4] (5 µM) it was 83.75 ± 2.19%. The “caspase 7 protein expression (Western blot)” value in assay [5] (MCF-7, 1.25 μM) is on record as 3 fold; in assay [5] (MCF-7, 2.5 μM) it was 3.3 fold; in assay [5] (MCF-7, 5 μM) it was 3.9 fold. Further, the “expression of Bax protein (Western blot, in words)” value in assay [6] was “markedly increased”.

As a reminder, the IC50 is the point on the concentration scale where inhibition reaches its midpoint.
